Laboratory results: patent US20220396567A1, “SUBSTITUTED PYRIMIDINE FOR THE TREATMENT AND PROPHYLAXIS OF HEPATITIS B VIRUS INFECTION” (Hoffmann-La Roche Inc., priority 2019, published 2022)

The molecules below were run on HBV (assay: Cryopreserved primary human hepatocytes (PHH) HBV infection assay, extracellular HBsAg by CLIA). Conditions: Hepatitis B virus, Hepatocyte, 216 h; HBV-infected cryopreserved PHH; extracellular HBsAg at 9 days post-compound treatment; 4 parameter logistic curve fit.
Type: cell-based
Protocol: This assay is used to confirm the anti-HBV effect of the compounds in HBV PHH infection assay. Cryopreserved PHH (BioreclamationIVT, Lot YJM) was thawed at 37° C. and gently transferred into pre-warmed InVitroGRO HT medium (BioreclamationIVT, Cat. S03317). The mixture was centrifuged at 70 relative centrifugal force (RCF) for 3 min at RT, and the supernatant was discarded. Pre-warmed InVitroGRO CP medium (BioreclamationIVT, Cat #S03316) was added to the cell pellet to gently re-suspend cells. The cells were seeded at the density of 5.8×10^4 cells per well to collagen I coated 96-well plate (Gibco, Cat. A1142803) with the InVitroGRO CP medium. All plates were incubated at 37° C. with 5% CO2 and 85% humidity.
At 20 hrs after plating, the medium was changed to PHH culture medium (Dulbecco's Modified Eagle Medium (DMEM)/F12 (1:1) (Gibco, Cat. 11320-033), 10% fetal bovine serum (Gibco Cat. 10099141), 100 U/mL penicillin, 100 μg/mL streptomycin (Gibco, Cat. 151401-122), […] (Invitrogen Cat. PHG0311L), 20 ng/mL dexamethasone (Sigma, Cat. D4902) and 250 ng/mL human recombinant insulin (Gibco, Cat. 12585-014)). And the cells were incubated at 37° C. with 5% CO2 and 85% humidity for 4 hrs. The medium was then changed to pre-warmed PHH culture medium containing 4% polyethylene glycol (PEG) MW8000 (Sigma, Cat. P1458-50 ML) and 1% DMSO (Sigma, Cat. D2650). 5.8×10^6 genomic equivalents of HBV were added into the medium.
At 24 hrs post-infection, the cells were gently washed with PBS and refreshed with PHH culture medium supplemented with 1% DMSO, and 0.25 mg/mL Matrix gel (Corning, Cat. 356237) at 200 μL per well. All plates were immediately placed in at 37° C. CO2 incubator.
24 hrs later, serial dilutions of compounds made with DMSO were further diluted with the same culture medium (PHH culture medium supplemented with 1% DMSO and 0.25 mg/mL Matrix gel as described above) before they were added to the cells to reach desired final compound concentrations and 1% DMSO concentration. The medium containing the compounds were refreshed every three days.
At 9 days post-compound treatment, extracellular HBsAg level were measured with Chemiluminescence Immuno Assay (CLIA) kit (Autobio, HBsAg Quantitative CLIA).
HBsAg IC50 was derived from the dose-response curve using 4 parameter logistic curve fit method. The compounds of formula (I) have HBsAg IC50<20 μM, particularly <1 μM.

| Structure (SMILES) | IC50 [µM] |
| --- | --- |
| COCCCNc1nc(NCc2cccc(C(F)(F)F)c2)c(C(=O)O)c(-c2ccco2)n1 [Example 51, 4-(2-furyl)-2-(3-methoxypropylamino)-6-[[3-(trifluoromethyl)phenyl]methylamino]pyrimidine-5-carboxylic Acid] | 9.61 |
| N#Cc1c(NCC2CCC(F)(F)C2)nc(N)nc1-c1ccco1 (centres unmarked) [Example 8, 2-amino-4-[(3,3-difluorocyclopentyl)methylamino]-6-(2-furyl)pyrimidine-5-carbonitrile] | 10.2 |
| CCCNc1nc(NCc2cccc(C(F)(F)F)c2)c(C#N)c(-c2ccco2)n1 [Example 15, 4-(2-furyl)-2-(propylamino)-6-[[3-(trifluoromethyl)phenyl]methylamino]pyrimidine-5-carbonitrile] | 3.01 |
| COCCNc1nc(NCc2cccc(C(F)(F)F)c2)c(C(=O)O)c(-c2ccco2)n1 [Example 46, 4-(2-furyl)-2-(2-methoxyethylamino)-6-[[3-(trifluoromethyl)phenyl]methylamino]pyrimidine-5-carboxylic Acid] | 4.31 |
| CCOC(=O)c1c(NCc2cccc(C(F)(F)F)c2)nc(SC)nc1-c1ccco1 [Example 45, Ethyl 4-(2-furyl)-2-methylsulfanyl-6-[[3-(trifluoromethyl)phenyl]methylamino]pyrimidine-5-carboxylate] | 8.16 |
| Nc1nc(NCC2CCCC2)c(C(=O)O)c(-c2ccco2)n1 [Example 41, 2-amino-4-(cyclopentylmethylamino)-6-(2-furyl)pyrimidine-5-carboxylic acid] | 3.24 |
| Cc1nc(NCc2ccc(OC(C)C)c(Br)c2)c(C#N)c(-c2ccco2)n1 [Example 21, 4-[(3-bromo-4-isopropoxy-phenyl)methylamino]-6-(2-furyl)-2-methyl-pyrimidine-5-carbonitrile] | 6.66 |
| CC(C)CNc1nc(NCc2cccc(C(F)(F)F)c2)c(C(=O)O)c(-c2ccco2)n1 [Example 50, 4-(2-furyl)-2-(isobutylamino)-6-[[3-(trifluoromethyl)phenyl]methylamino]pyrimidine-5-carboxylic Acid] | 8.62 |
| COc1cccc(CN(C)c2nc(N)nc(-c3ccco3)c2C#N)c1 [Example 6] | 10.1 |
| Nc1nc(NCc2ccccc2N)cc(-c2cccs2)n1 [Example 36, N4-[(2-aminophenyl)methyl]-6-(2-thienyl)pyrimidine-2,4-diamine] | 6.62 |
| COCCNc1nc(NCc2cccc(C(F)(F)F)c2)c(C#N)c(-c2ccco2)n1 [Example 12, 4-(2-furyl)-2-(2-methoxyethylamino)-6-[[3-(trifluoromethyl)phenyl]methylamino]pyrimidine-5-carbonitrile] | 3.89 |
| N#Cc1c(NCC2(c3ccccc3)CCCC2)ncnc1-c1ccco1 [Example 30, 4-(2-furyl)-6-[(1-phenylcyclopentyl)methylamino]pyrimidine-5-carbonitrile] | 9.06 |
| CCOC(=O)c1c(NCc2cccc(C(F)(F)F)c2)nc(NCC(C)C)nc1-c1ccco1 [Example 49, Ethyl 4-(2-furyl)-2-(isobutylamino)-6-[[3-(trifluoromethyl)phenyl]methylamino]pyrimidine-5-carboxylate] | 5.35 |
| Nc1nc(NCc2cccc(C(F)(F)F)c2)c(C(=O)O)c(-c2ccco2)n1 [Example 38, 2-amino-4-(2-furyl)-6-[[3-(trifluoromethyl)phenyl]methylamino]pyrimidine-5-carboxylic Acid] | 2.49 |
| COc1nc(NC(C)c2cccc(C(F)(F)F)c2)cc(-c2ccco2)n1 (centres unmarked) [Example 34, 6-(2-furyl)-2-methoxy-N-[1-[3-(trifluoromethyl)phenyl]ethyl]pyrimidin-4-amine] | 3.49 |
| Nc1nc(NCc2cccc(C(F)(F)F)c2)c(C(=O)N2CCC2)c(-c2ccco2)n1 [Example 52, [2-amino-4-(2-furyl)-6-[[3-(trifluoromethyl)phenyl]methylamino]pyrimidin-5-yl]-(azetidin-1-yl)methanone] | 7.94 |
| Cc1nc(NCc2ccccc2)c(C#N)c(-c2ccco2)n1 [Example 23, 4-(benzylamino)-6-(2-furyl)-2-methyl-pyrimidine-5-carbonitrile] | 6.89 |
| N#Cc1c(NCc2ccccc2N)ncnc1-c1ccco1 [Example 31, 4-[(2-aminophenyl)methylamino]-6-(2-furyl)pyrimidine-5-carbonitrile] | 0.27 |

| Structure (SMILES) | IC50 [µM] |
| --- | --- |
| CN(C)c1nc(NCc2ccccc2N)cc(-c2ccco2)n1 [Example 33, N4-[(2-aminophenyl)methyl]-6-(2-furyl)-N2,N2-dimethyl-pyrimidine-2,4-diamine] | 7.58 |
| COc1ccc(Br)c(CNc2nc(C)nc(-c3ccco3)c2C#N)c1OC [Example 20, 4-[(6-bromo-2,3-dimethoxy-phenyl)methylamino]-6-(2-furyl)-2-methyl-pyrimidine-5-carbonitrile] | 2.66 |
| Nc1nc(NCc2ccc(Cl)cc2)c(C(=O)O)c(-c2ccco2)n1 [Example 37, 2-amino-4-[(4-chlorophenyl)methylamino]-6-(2-furyl)pyrimidine-5-carboxylic Acid] | 2.93 |
| CN(C)c1nc(NCc2cccc(C(F)(F)F)c2)c(C#N)c(-c2ccco2)n1 [Example 16, 2-(dimethylamino)-4-(2-furyl)-6-[[3-(trifluoromethyl)phenyl]methylamino]pyrimidine-5-carbonitrile] | 6.75 |
| Nc1nc(NCc2cccc(C(F)(F)F)c2)c(C(=O)N2CCCC2)c(-c2ccco2)n1 [Example 53, [2-amino-4-(2-furyl)-6-[[3-(trifluoromethyl)phenyl]methylamino]pyrimidin-5-yl]-pyrrolidin-1-yl-methanone] | 9.25 |
| CC(Nc1nc(N)nc(-c2ccco2)c1C#N)c1cccc(C(F)(F)F)c1 (centres unmarked) [Example 5, 2-amino-4-(2-furyl)-6-[1-[3-(trifluoromethyl)phenyl]ethylamino]pyrimidine-5-carbonitrile] | 0.47 |
| CCCCOc1nc(NCc2cccc(C(F)(F)F)c2)c(C#N)c(-c2ccco2)n1 [Example 19, 2-butoxy-4-(2-furyl)-6-[[3-(trifluoromethyl)phenyl]methylamino]pyrimidine-5-carbonitrile] | 2.42 |
| N#Cc1c(NCc2ccccc2)ncnc1-c1ccco1 [Example 25, 4-(benzylamino)-6-(2-furyl)pyrimidine-5-carbonitrile] | 2.03 |
| COCCNc1nc(NC2(c3cccc(C(F)(F)F)c3)CC2)c(C(=O)O)c(-c2ccco2)n1 [Example 58, 4-(2-furyl)-2-(2-methoxyethylamino)-6-[[1-[3-(trifluoromethyl)phenyl]cyclopropyl]amino]pyrimidine-5-carboxylic Acid] | 5.96 |
| N#Cc1c(NCC2CCCCC2)ncnc1-c1ccco1 [Example 27, 4-(cyclohexylmethylamino)-6-(2-furyl)pyrimidine-5-carbonitrile] | 6.83 |
| N#Cc1c(NCC2CCCCC2)nc(N)nc1-c1ccco1 [Example 10, 2-amino-4-(cyclohexylmethylamino)-6-(2-furyl)pyrimidine-5-carbonitrile] | 3.62 |
| CN(Cc1ccccc1)c1nc(N)nc(-c2ccco2)c1C(=O)O [Example 42, 2-amino-4-[benzyl(methyl)amino]-6-(2-furyl)pyrimidine-5-carboxylic Acid] | 5.27 |
| CCOC(=O)c1c(NCc2ccccc2Cl)ncnc1-c1ccco1 [Example 57, Ethyl 4-[(2-chlorophenyl)methylamino]-6-(2-furyl)pyrimidine-5-carboxylate] | 4.26 |
| CCNc1nc(NC2(c3cccc(C(F)(F)F)c3)CC2)c(C(=O)O)c(-c2ccco2)n1 [Example 60, 2-(ethylamino)-4-(2-furyl)-6-[[1-[3-(trifluoromethyl)phenyl]cyclopropyl]amino]pyrimidine-5-carboxylic Acid] | 6.5 |
| N#Cc1c(NCC2CCCC2)ncnc1-c1ccco1 [Example 29, 4-(cyclopentylmethylamino)-6-(2-furyl)pyrimidine-5-carbonitrile] | 2.61 |
| Cc1ccccc1CNc1nc(N)nc(-c2ccco2)c1C(=O)O [Example 39, 2-amino-4-(2-furyl)-6-(o-tolylmethylamino)pyrimidine-5-carboxylic Acid] | 9.07 |
| CSc1nc(NCc2cccc(C(F)(F)F)c2)c(C#N)c(-c2ccco2)n1 [Example 11, 4-(2-furyl)-2-methylsulfanyl-6-[[3-(trifluoromethyl)phenyl]methylamino]pyrimidine-5-carbonitrile] | 2.35 |
